According to patent US20030095962A1, “Chimeric cell-surface receptors that undergo antigen-induced association” (priority 1997, published 2003):

Experiments:
Ba/F3 cells = assay: Growth of Ba/F3 cells without expression vectors in HEL-containing medium without IL-3; type: cell-based, mouse; settings: RPMI 1640, 10 μg/ml HEL, 10% FBS, no expression vectors introduced
Description: Two plasmids, PME-VHER and pME-VLER, produced in Example 1, were introduced into the cell line Ba/F3 which is derived from the interleukin-3 (IL-3) dependent mouse pro-B cells, by using electroporation method. The Ba/F3 cells (2×10^6) in the logarithmic growth period and 5 μg each of above plasmid DNAs linearized with the restriction enzyme KpnI were suspended in 100 μl HBS (Hanks' Buffered Saline: Nissui Pharmacy). Rectangular pulses, 500 volts/150 μsec, were applied 10 times using a gene introduction electric pulse generator (electrodes of 4 mm intervals, Bio-Rad). The cells was kept at room temperatures for five minutes, diluted in 4 ml RPMI 1640 culture media (Nissui Pharmacy) containing 400 μg/ml G418 (Sigma), 8 ng/ml mouse IL-3 (Genzyme) and 10% fetal bovine serum (FBS, Gibco), added into 24-well plates 1 ml each, and cultured for two weeks at 37° C. in the 5% CO2 humidified atmosphere. The resultant colonies were mixed and cultured for another three days in the same media 100 μl cell suspensions were diluted in 2 ml RPMI 1640 medium containing 10 μg/ml hen egg lysozyme (HEL, Seikagaku) and 10% FBS (Gibco) and were subcultured. The Ba/F3 cell line is known to be released from IL-3 dependency by the ectopic expression of the EPO receptor when EPO is added to the medium. […]

[1] = test system: Ba/HEL cells (Ba/F3 cells expressing VH/VL-EpoR chimeric receptors); assay: Antigen-dependent growth of Ba/HEL cell clones (viable cell count, trypan blue); type: cell-based, mouse
Description: FIG. 3 is a graph showing the relation between the concentrations of antigen n a culture medium and cell growth rates. Clone G8 was obtained by transforming Ba/F3 cells with the VH/VL EpoR vector constructs and growing in the presence of antigen. In this experiment, separate cultures of Clone G8 was cultured with different constant amounts of the antigen HEL over a 5-day period. Cell proliferation was dose-dependent, and was inducible up to at least about 5 times the rate by including antigen in the culture medium.
The clones of Ba/HEL cells were cultured with various concentrations of HEL to measure the change of the cell number over time. HEL was added in the concentrations of 0, 0.005, 0.05 and 0.5 μg/ml to the RPMI 1640 medium containing 10% FBS, seeded Ba/HEL clones with the initial concentration of 5×10^3 ml, and measured the change in the number of viable cells over time by the cell count method using trypan blue.
Cell growth was conspicuously accelerated with as low as 5 ng/ml antigen. This concentration agrees with the detectable antigen concentration in the immunoassay based on VH/VL association of HyHEL-10 Fv (Ueda et al., Nature Biotech, 14, 1714-1718, 1996). Accordingly, antigen concentration can be measured, that is, immunoassay can be performed using the level of growth of this cell as an index.

## hen egg lysozyme [HEL]
Ba/F3 cells
  Growth of cells in HEL-containing medium: did not grow
[1]; Ba/HEL clone G8, similar results for all clones inspected
  Cell growth in relation to the HEL concentration in the medium: cell growth depends on the concentration of HEL
[1]; Ba/HEL clones, RPMI 1640 with 10% FBS, HEL 0, 0.005, 0.05 and 0.5 μg/ml
  Antigen concentration at which cell growth was conspicuously accelerated: ≤ 5 ng/mL
[1]; Clone G8, different constant amounts of HEL over a 5-day period
  Cell proliferation inducible by including antigen in the culture medium: at least 5 times the rate
